Source: patent publication US10253028B2, “Pyrazolo[3,4-D]pyrimidin derivative and its use for the treatment of leishmaniasis” (GlaxoSmithKline Intellectual Property Development Limited, priority 2015, dated 2019)

Legend:
THP-1 cells = assay: Intramacrophage Leishmania donovani assay, cytotoxicity readout (THP-1 cell count); assay type: cell-based; conditions: 72 h incubation with compound; for EC50: Homo sapiens, THP-1, 72 h, read-out: pEC50 value against THP-1 cells (converted)
Method: (§1) Intra macrophage Leishmania donovani assay
(§2) The intramacrophage Leishmania assay was performed exactly as described in de Rycker et al (Antimicrob Agents Chemother. 2013 July; 57(7):2913-22. doi: 10.1128/AAC.02398-12. Epub 2013 Apr. 9. Comparison of a high-throughput high-content intracellular Leishmania donovani assay with an axenic amastigote assay. De Rycker M, Hallyburton I, Thomas J, Campbell L, Wyllie S, Joshi D, Cameron S, Gilbert I H, Wyatt P G, Frearson J A, Fairlamb A H, Gray D W.). Briefly, 1 μl of compound was pre-dispensed into 384 well sterile intermediary plates. For single point screening, amphotericin B was added to all wells of column 24 as a positive control (final concentration 2 μM) and DMSO to column 23. For potency determinations, ten-point, one in three dilution curves were created with the highest concentration being 50 μM and on each plate a control curve of amphotericin B was included. Controls were as follows: columns 11 and 12: DMSO, columns 23 and 24: amphotericin B (final concentration 2 μM). To the intermediary plates, 100 μl of THP-1 media was added and plates were shaken for >5 min to ensure complete mixing. THP-1 cells (8,000 per well, 50 μl) were plated into black clear-bottom 384 well plates (Corning) in presence of 10 nM PMA. After 20 min at RT, the plates were incubated at 37° C. under 5% CO2 in a humidified incubator for 75 h. The cells were then washed with 450 μl sterile phosphate buffered saline (PBS) supplemented with 1 mM CaCl2, 0.5 mM MgCl2, 0.1% (w/v) bovine serum albumin (PBS-A) and amastigotes were added to all wells at a multiplicity of infection of 5 (40,000 amastigotes per well). After 40 min at RT, plates were returned to the incubator. Amastigotes were incubated in the presence of macrophages for 16 h. […] For each well, i) THP-1 cell count (cytotoxicity readout) and ii) average number of amastigotes per cell (potency readout) were calculated, both in terms of pEC50 values.

[1] = system: Leishmania donovani amastigotes; assay: Intramacrophage Leishmania donovani assay, potency readout (average number of amastigotes per cell); assay type: cell-based; conditions: THP-1, 72 h, amastigotes in PMA-differentiated THP-1 macrophages, 72 h incubation with compound, read-out: pEC50 value against amastigotes (converted)
Method: as §1
as §2, with “mixing.” for “mixing. THP-1 cells (8,000 per well, 50 μl) were plated into black clear-bottom 384 well plates (Corning) in presence of 10 nM PMA. After 20 min at RT, the plates were incubated at 37° C. under 5% CO2 in a humidified incubator for 75 h. The cells were then washed with 450 μl sterile phosphate buffered saline (PBS) supplemented with 1 mM CaCl2, 0.5 mM MgCl2, 0.1% (w/v) bovine serum albumin (PBS-A) and amastigotes were added to all wells at a multiplicity of infection of 5 (40,000 amastigotes per well). After 40 min at RT, plates were returned to the incubator. Amastigotes were incubated in the presence of macrophages for 16 h.”

## C[C@H]1CN(c2n[nH]c3nc(NC4CCC(NS(=O)(=O)CCC(F)(F)F)CC4)ncc23)CCO1 (single isomer, unassigned) [Formula (I)]
THP-1 cells
  pEC50 value against THP-1 cells: 4.3
  EC50: ≥ 39.8 µM

## C[C@@H]1CN(c2n[nH]c3nc(NC4CCC(NS(=O)(=O)CCC(F)(F)F)CC4)ncc23)CCO1 (single isomer, unassigned) [opposite enantiomer]
THP-1 cells
  EC50: ≥ 39.8 µM
[1]
  EC50: ≤ 5.01 µM
